Counter-ions that a name gives are not always drawn. Like-named read-outs stand apart in the source and are kept apart here.
Legend:
Haemophilus parasuis = test: MIC against Haemophilus parasuis isolates; assay type: cell-based; conditions: for MIC: Glaesserella parasuis, 3 isolates
Description: The minimal inhibitory concentration (MIC) of valnemulin hydrochloride against recent isolates of Pasteurelia multocida, Haemophilus pleuropneumoniae and Haemophilus parasuis originating from porcine respiratory material is determined and compared with tiamulin. […] Three of the Pasteurella isolates were toxigenic strains of Pasteurella multocida. For H. pleuropneumoniae and H. parasuis, on the day before testing a single loopful of each of the pure cultures is inoculated into 10 ml of Todd & Hewitt broth (Unipath CM190) containing 1% donor calf serum and 2 mg per ml of nicotinamide adenine dinucleotide (NAD). For P. multocida, […] a single loopful of each of the pure cultures is inoculated into 10 ml of nutrient broth No. 2 (Unipath CM67) containing 1% donor calf serum. Each of the prepared broth cultures are incubated for 18 hours at 37° C. in 10% CO2. […] For each test compound, standard control cultures of Oxford Staphylococcus aureus NCTC 6571 are also set up to validate the results of the MIC tests. In each case, broth cultures set up from the control organisms are identical to those of the organisms under test. Valnemulin is a hydrochloride, tiamulin is used as the hydrogen fumarate. […] Sensitised agar (Oxoid CM409) containing lysed horse blood (Oxoid SR50) is prepared according to the manufacturer's recommendations and adjusted to pH 7.4 it necessary. […] Four replicate plates are prepared from each dilution. […] After inoculation the growth of the organisms is examined initially by eye followed by microscopic examination on a stereo zoom microscope. The MIC value is taken as the lowest concentration of test compound at which no growth can be detected at the point of inoculation on all four plates by microscopic examination.

S. hyodysenteriae [1] = test: MIC determination by agar dilution, 10 strains from porcine faeces; assay type: cell-based, Serpulina hyodysenteriae; conditions: for MIC: Brachyspira hyodysenteriae
Description: Minimum inhibitory concentrations (MICs) are determined against 10 strains of S. hyodysenteriae isolated from porcine faeces, by the agar dilution method. NCTC (National Collection of Type Cultures) strains or reference strains are used as controls in all MIC tests. The agar medium for S. hyodysenteriae consists of BAB2 (Unipath CM271) containing 7% whole defibrinated sterile sheep blood. All antimicrobial agents are tested in doubling dilutions. Prepared antibiotic dilutions are added to an appropriate volume of MH agar, previously cooled to 50° C., mixed and 20 ml volumes poured. All S. hyodysenteriae incubations are performed in an anaerobic work station at 37° C. (+/-0.5° C.) (Don Whitley Scientific) which provides a strict anaerobic atmosphere comprising 80% nitrogen, 10% hydrogen and 10% carbon dioxide. All other incubations are performed at 37° C. All strains are incubated in an […] atmosphere at 37° C. for 24 hours. The numbers of the organisms are adjusted to an optical density (OD) equivalent to 1×10^8 colony forming units (cfu) per ml, using MH broth as a blank. The antibiotic containing plates are inoculated in duplicate using a multipoint inoculator (Denley Instruments) which delivers a plate inoculum of approximately 1 μl giving an inoculum of 10^4 -10^5 cfu per spot for all strains (Amon, J. Antimicrob. Chemother. 21 [1988] 701-710; Ericsson et al., Acta Pathol. Microbiol. et Immunol. Scand. 217 [1971] (B) Suppl., 1-90). Control plates are incubated under the same conditions as the test plates. The MICs are read after 24 and 48 hours, the latter being the definitive reading. The MIC is defined as the lowest concentration of antibiotic on which there is no growth, disregarding a single colony or a faint haze caused by the inoculum (National Committee for Clinical Laboratory Standards [1989], Antimicrobial Susceptibility Testing, NCCLC Publications SC3, Villanova, Pa., USA).

Mycoplasma hyosynoviae = test: MIC assay, 7 field isolates of Mycoplasma hyosynoviae; assay type: cell-based; conditions: for MIC: Mycoplasma, 7 field isolates
Description: Tissue samples are obtained from the lungs of pigs from various enzootic pneumonia of pigs (EPP)--affected herds. Samples are shipped on dry ice for culture. Four isolates from lung samples initially isolated for recovery of Mycoplasma hyopneumoniae were reisolated for Mycoplasma hyosynoviae after it had been noted from the lung samples submitted (re-stored at -70° C.), during culture for M. hyopneumoniae, that some samples yielded luxuriant growth of colonies having the typical morphology of Mycoplasma hyosynoviae. Three further isolates were recovered from other lung samples provided. All isolates were serologically identified by disc growth inhibition with specific rabbit antiserum raised against Mycoplasma hyosynoviae. A commerically available solid medium (Mycoplasma Experience Ltd.) is used to isolate M. hyosynoviae from lung tissue. A liquid medium (Mycoplasma Experience Ltd.) containing phenol red and arginine (pH 7.0) is used for the MIC assay.
Stock solutions of test compound are prepared at 1 mg/ml concentration in deionised water, sterilised by filtration through 0.2μ pore size membrane filters (Sartorius Minisart, N) and stored at -20° C. For use in the MIC tests the stock solutions are diluted in liquid medium to double the final concentrations required. MIC tests are carried out according to the method of Tanner and Wu, Avian Diseases 36 (1992) 714-717. Actively growing challenge cultures are prepared either from 1 ml aliquots of broth cultures stored at -70° C. or from cultures stored on agar at -70° C. The challenge cultures are diluted to give a target titre of 10^3 to 10^5 colour changing units/ml. 0.1 ml aliquots of challenge inocula are mixed with 0.1 ml aliquots of antibiotic dilution in microtitre wells. Each microtitre plate contains uninoculated media at pH 7.6 (end point control) and antibiotic-free inoculated challenge controls. All plates are sealed with adhesive film and incubated aerobically at 36° C. MICs are recorded when the colour change in the challenge control wells matches the pH of the end point control. The MIC is the lowest concentration showing no colour change.

S. hyodysenteriae [2] = test: Further challenge trial: treatment of swine dysentery; assay type: in vivo, pigs
Description: A group of 60 (3.5 to 4 weeks old) conventionally reared pigs are fed unmedicated food for 14 days then challenged by the oral route with the standard strain of S. hyodysenteriae (P18A). When clinical signs of disease are evident, pigs are allocated to six treatment groups of 8 pigs per group and fed antibiotic containing feed for 10 days, then unmedicated food for a further 14 days. Valnemulin hydrochloride is fed at 50, 75, 100 and 150 ppm and compared with tiamulin hydrogen fumarate fed at 100 ppm and with unmedicated controls. Pigs with a range of clinical signs of disease are included in each treatment group. After allocation to the treatment groups the evidence of clinical disease is assessed daily and a clinical score assigned, rectal swabs are taken twice weekly for isolation of S. hyodysenteriae and all pigs are weighed at regular intervals. Food intake is also recorded. A post-mortem examination is carried out 24 days after challenge and the large intestine of each pig examined for the presence of lesions. Mucosal scrapings are also taken from 4 areas in the large intestine and cultured for S. hyodysenteriae.

[3] = tiamulin 100 ppm, treatment period

## C=C[C@]1(C)C[C@@H](OC(=O)CSCCN(CC)CC)[C@]2(C)[C@H](C)CC[C@]3(CCC(=O)[C@H]32)[C@@H](C)[C@@H]1O [tiamulin hydrogen fumarate]
Haemophilus parasuis; 18 h, read-out: MIC mean
  MIC: 0.7 µg/mL
Haemophilus parasuis; read-out: MIC range
  MIC: 0.5 to 1 µg/mL
S. hyodysenteriae [1]
  MIC: 0.3 µg/mL
Mycoplasma hyosynoviae
  MIC: 0.0025 to 0.025 µg/mL
S. hyodysenteriae [2]; tiamulin 100 ppm
  day by which improvement was seen in surviving pigs: ≤ 8 days
  mean clinical score: 30
  mortality in words: reduced mortality compared to unmedicated controls but did not prevent some deaths
S. hyodysenteriae [2]; tiamulin 100 ppm, last day of trial
  pigs with swine dysentery in post treatment period: one pig
S. hyodysenteriae [2]; [3]
  animals that died or required euthanasia: 3 animals
  daily live weight gain (DLWG): 0.1
  feed conversion ratio (FCR): 6.4

## C=C[C@]1(C)C[C@@H](OC(=O)CSC(C)(C)CNC(=O)[C@H](N)C(C)C)[C@]2(C)[C@H](C)CC[C@]3(CCC(=O)[C@H]32)[C@@H](C)[C@@H]1O [valnemulin hydrochloride, 14-O-[1-[(R)-2-amino-3-methylbutyrylamino]-2-methylpropan-2-ylthioacetyl]mutilin]
Haemophilus parasuis; 18 h, read-out: MIC mean
  MIC: 0.25 µg/mL
Haemophilus parasuis; read-out: MIC range
  MIC: 0.25 µg/mL
Haemophilus parasuis; H. parasuis
  mean increase in activity compared with tiamulin: three fold
S. hyodysenteriae [1]
  MIC: 0.1 µg/mL
S. hyodysenteriae [1]; all strains
  susceptibility of S. hyodysenteriae strains: susceptible
S. hyodysenteriae [1]; vs tiamulin, lincomycin, tylosin, dimetridazole
  most active of the agents tested by: 3-600 fold
Mycoplasma hyosynoviae
  MIC: 0.0001 to 0.0005 µg/mL
Mycoplasma hyosynoviae; seven field isolates
  sensitivity of isolates in words: much higher than for the other two compounds
S. hyodysenteriae [2]; all levels of valnemulin, after withdrawal of medicated feed
  shedding of S. hyodysenteriae in faeces: prevented by all levels of valnemulin
S. hyodysenteriae [2]; days 3 to 10, all valnemulin groups
  p of clinical scores, valnemulin vs tiamulin: < 0.001
S. hyodysenteriae [2]; valnemulin 50, 75, 100, 150 ppm
  survival: All pigs treated with valnemulin survived
S. hyodysenteriae [2]; valnemulin 50, 75, 100 and 150 ppm
  recovery from clinical swine dysentery compared to tiamulin: reduction in the number of days that were needed to recover
S. hyodysenteriae [2]; valnemulin 50 ppm
  pigs with clinical signs in post treatment period: one pig
  pigs with clinical swine dysentery at post-mortem: 1 pig
  pigs with reddening of the large intestine: one other pig
  time to clinical signs after withdrawal of medicated feed: 4 days
S. hyodysenteriae [2]; valnemulin 75, 100 or 150 ppm
  post-mortem lesions of swine dysentery: not seen
S. hyodysenteriae [2]; valnemulin 75 ppm
  pigs with S. hyodysenteriae in mucosal scrapings: One pig
S. hyodysenteriae [2]; valnemulin 100 ppm
  efficacy in words: highly effective
S. hyodysenteriae [2]; valnemulin, all levels
  day by which clinical disease was not seen: ≤ 5 days
